Test results reported in patent US20250222009A1, “DINUCLEAR GOLD(I) COMPLEXES FOR TREATING CANCER” (KING FAHD UNIVERSITY OF PETROLEUM AND MINERALS, priority 2024, published 2025).

Tests used:
MCF-7 (breast cancer) = assay: MTT cytotoxicity assay, MCF-7; format: cell-based; details: 72 h, mean, SD in next cell
Description: (§1) The human epithelial ovarian cancer A2780 cell line and its cisplatin-resistant clone A2780cis were obtained from Sigma-Aldrich (Milano, Italy). A2780cis cells were continuously exposed to 1 μM cisplatin to maintain cisplatin resistance. A549 cells (Human non-small cell lung cancer), MCF7 (metastatic breast cancer), PC3 (highly aggressive metastatic prostate cancer), and MG63 (osteosarcoma) were obtained from the American Type Culture Collection (ATCC). Cells were authenticated in laboratory using the PowerPlex 16 HS System. A2780, A2780cis, and PC3 cells were cultured in RPMI-1640 medium; MG63 and MCF7 cells were cultured in DMEM, and A549 cells were cultured in F12 NUT-MIX. The culture medium contained about 10% fetal bovine serum (FBS) (Gibco, Thermo Fisher Scientific, Monza, Italy), about 1% (v/v) of penicillin (10,000 units/mL)-streptomycin (10 mg/mL), and about 1% (v/v) L-glutamine (200 mM) (all from Sigma-Aldrich). Cells were cultured at 37° C. in a 5% CO2, fully humidified atmosphere.
(§2) 2.5×10^3 (PC3, MG63, MCF7) or 4.0×10^3 (A2780, A2780cis, A549) cells were seeded in 96-well microplates in 100 μL culture medium. Cells, allowed to adhere for 24 h, were then treated in triplicate with increasing concentrations of gold compounds. Cisplatin was included as a reference drug. Cell viability was evaluated using 3-(4,5-dimethylthiazol-2-yl)-2,5-diphenyltetrazolium bromide (MTT) assay (Sigma-Aldrich) after 72 h of treatment. Half maximal inhibitory concentrations (IC50), IC25, and IC75 were calculated using the CalcuSyn software version 2 (Biosoft, Ferguson, MO, USA) (See: Chou, T. C.; Talalay, P. Quantitative Analysis of Dose-Effect Relationships: The Combined Effects of Multiple Drugs or Enzyme Inhibitors. Adv. Enzyme Regul. 1984, 22, 27-55, which is incorporated herein by reference in its entirety). Fold resistance was calculated as the ratio of the IC50 of the A2780cis to that of the parental cell line A2780. Alternatively, cell viability was assayed by crystal violet staining (See: Feoktistova, M.; Geserick, P.; Leverkus, M. Crystal Violet Assay for Determining Viability of Cultured Cells. Cold Spring Harb Protoc 2016, 2016, pdb.prot087379, which is incorporated herein by reference in its entirety). Alternatively, after drug treatment, the culture Medium was removed, cells washed, fixed, and stained, and the Crystal Violet solution lasted 20 minutes (See: Sulaiman, A. A. A.; Casagrande, N.; Borghese, C.; Corona, G.; Isab, A. A.; Ahmad, S.; Aldinucci, D.; Altaf M. Design, Synthesis, and Preclinical Activity in Ovarian Cancer Models of New Phosphanegold(I)—N-Heterocyclic Carbene Complexes. J Med Chem 2022, 65, 14424-14440, which is incorporated herein by reference in its entirety).

CD44 = CD44 surface expression, flow cytometry; format: cell-based, human; details: A549, 24 h
Description: (§3) 2.0×10^5 A549 cells were seeded in 6-well plates in a complete medium and treated with the complex 3. Assay results were detected by flow cytometry on a BD FACSCanto II flow cytometer. Data were analyzed using BD FACSDiva v.8.0.1 software (BD Biosciences) unless otherwise indicated. Tumor cells were treated for 72 h with complex 3, then stained for 15 minutes with FITC Annexin-V (Thermo Fisher Scientific) and 7AAD (BD Pharmingen, Milan, Italy). Activated caspase-3,7 was detected using the CaspaTag Caspase-3,7 assay (Merck Millipore) after an incubation of 24 h with complex 3. For B-cell lymphoma/leukemia-2 protein (Bcl-2) and Bcl-2 associated x protein (Bax) analysis, cells were treated for 72 h with C3, then fixed and permeabilized (FIX & PERM Cell Fixation & Cell Permeabilization Kit, Life Technologies). […] The distribution of cells in different cell cycle phases was quantified using ModFit LT 4.0 software (Verity Software House, Topsham, ME, USA) (See: Sulaiman, A. A. A.; Casagrande, N.; Borghese, C.; Corona, G.; Isab, A. A.; Ahmad, S.; Aldinucci, D.; Altaf M. Design, Synthesis, and Preclinical Activity in Ovarian Cancer Models of New Phosphanegold(I)—N-Heterocyclic Carbene Complexes. J Med Chem 2022, 65, 14424-14440, which is incorporated herein by reference in its entirety). […]

caspase-3,7 = assay: Caspase-3,7 activation (CaspaTag/FLICA), flow cytometry; format: cell-based, human; details: A549, 24 h
Description: as §3

Bcl-2 = Bcl-2 expression, flow cytometry; format: cell-based, human; details: A549, 72 h
Description: as §3

A549 cells [1] = assay: Mitochondrial ROS generation (MitoSOX Red); format: cell-based, human; details: A549, 48 h
Description: as §3

A549 cells [2] = assay: Annexin-V-FITC/7AAD apoptosis, flow cytometry; format: cell-based, human; details: A549, 72 h, 0.06-0.60 μM
Description: as §3

BAX = BAX expression, flow cytometry; format: cell-based, human; details: A549, 72 h
Description: as §3

[3] = tested on: A2780cis (cisplatin-resistant clone of A2780); assay: MTT cytotoxicity assay, A2780cis; format: cell-based, human
Description: as §1, §2

Structure (SMILES): CC(C)c1cccc(C(C)C)c1-n1ccn(-c2c(C(C)C)cccc2C(C)C)[c]1=[Au-][P+](CCNCC[P+]([Au-]=[c]1n(-c2c(C(C)C)cccc2C(C)C)ccn1-c1c(C(C)C)cccc1C(C)C)(C1CCCCC1)C1CCCCC1)(C1CCCCC1)C1CCCCC1 [Complex 3, [(Au(IPr))2(C28H24P2)](PF6)2]
- IC50 (MCF-7 (breast cancer)): 430 nM
- CD44 expression (CD44): decreased
- caspase-3,7 activation (caspase-3,7): activated
- anti-apoptotic BCL-2 expression (Bcl-2): down-regulated
- mitochondrial reactive oxygen species (mit-ROS) (A549 cells [1]): increased
- percentage of Annexin-V-positive cells (early apoptosis) (A549 cells [2]): increased in a dose-dependent manner
- percentage of double stained Annexin-V/7AAD-positive cells (late apoptosis) (A549 cells [2]): increased in a dose-dependent manner
- pro-apoptotic BAX expression (BAX): induced
- Fold resistance (A2780cis/A2780) ([3]; IC50 A2780cis/IC50 A2780): 2.19
- IC50 ([3]; MTT, 72 h, mean, SD in next cell): 240 nM
